The subject of data set [1] is granuloma. Put plainly: Anti-proliferative (anti-granulomatous) activity, cotton pellet granuloma. Format: in vivo, rat (Wistar, male). The conditions noted are these: rat, cotton pellet impregnated with product, 6 days. The source says: The experimental local anti-inflammatory activity of the compounds presented was estimated in rats by their anti-proliferative (anti-granulomatous) action, and for certain of these, by their anti-arthritic activity and their antiexudative activity.
The anti-proliferative (anti-granulomatous) activity has been brought into evidence by means of a test, the principle of which is as follows.
The introduction of a foreign body into an organism produces a set of inflammatory reactions which results, in the chromic stage, in the formation of a defence granuloma around the foreign body. The proliferation of this granuloma is eliminated or attenuated by anti-inflammatory agents.
The technique employed is very similar to that described by Winter and Porter (J. Am. Pharm. Ass. 46/9. 515) 1957 with rats.
Homogeneous groups of 6 male adult rats of the Wistar Strain were used, distributed at random and having weights comprised between 180 and 200 grams.
The implants or pellets were prepared from rolls of dental cotton; the weight of the pellets was between 35 and 40 mg.
The products to be tested were dissolved in dimethylsulphoxide (DMSO) and the solutions obtained, deposited on the pellets at a volume of 0.2 ml per pellet. The DMSO was then evaporated under high vacuum at ambient temperature, the complete elimination of the solvent being checked by weighing the pellets. "Reference" pellets, soaked with the solvent alone, were treated in the same manner.
Immediately before their introduction, the pellets were soaked with an antibiotic solution (0.1 ml. of a solution of penicillin G and streptomycin containing 200,000 of penicillin G and 0.1 gram of streptomycin sulphate per cc.).
Each animal received two pellets in the sub-cutaneous dorsal tissue on each side of the spinal column, at the costo-lumbar angle, under light anaesthesia with ether. The day of the operation and for three days after, the animals received by sub-cutaneous injection, 0.1 ml. of the antibiotic solution in the caudal region.
Six days after the introduction, the animals were killed by inhalation of chloroform and the granulomae were extracted and weighed, (fresh weight), and then the initial weights of the cotton pellets were subtracted from the total weight.
Certain non-sulphured steroids causing a large increase in protein catabolism which can influence the formation of the granuloma independently of their anti-inflammatory action, the weights of the granulomae were expressed as a percentage of the body weight (technique proposed by G. Dipasquale and A. Meli: J. Pharm. Pharmacol. (1965), 17,367-382) and the anti-proliferative effect of the various compounds as a percentage inhibition with respect to the reference granulomae. The DE50 were calculated by transferring the results on to semi-logarithmic paper.

For data set [2], the system named is exudate in carrageenan air pouch. Put plainly: Anti-exudative action, carrageenan air pouch. Format: in vivo, rat (Wistar, male). As to conditions: injected into the air pouch 96 h after carrageenan; exudate measured 96 h later. How it is done:
The anti-exudative activity was brought into evidence by means of a test, the principle of which is as follows.
This test consists of creating, under the dorsal skin of the rat an air pouch in which an irritant product is injected. An inflammatory reaction appears rapidly and is shown by the accumulation of liquid in the pouch of air.
The introduction of an anti-inflammatory product into the air pouch reduced, more or less completely, the accumulation of exudate.
This study was carried out with male rats of the Wistar strain, the initial weight of which was between 160 and 180 grams, following the technique described by M. Fukuhara and S. Tsurufuji (Bio-Chem. Pharmac. 18, 475-484, 1969). Each lot comprised 10 animals distributed at random.
Twenty-four hours before the beginning of the test, each animal received a sub-cutaneous injection of 6 ml. of air in the dorsal region, previously shaved. […]
Ninety-six hours after this last injection, the animals were killed and the exudate contained in the pouch was collected through a small incision made with a scalpel, and its volume was measured in a test tube.
The difference in volume of the exudate between the animals treated and the reference lot was expressed as a percentage inhibition.

In data set [3] the test system is adrenal glands, gonads, seminal vesicles, uterine tubes. Put plainly: Action on the endocrine glands and the genital tractus: organ weights and histology, long-term treatment. The conditions noted are these: for Ovaries weight / Seminal vesicles weight / Testicles weight / Uterine tubes weight / Adrenal glands weight: 4 weeks, N.S. The format is in vivo, rat (Sprague-Dawley). The source says:
The action on the endocrine glands and the genital tractus, and a possible ulcerogenic effect were investigated, together with the effects on the glucidic and proteic metabolisms, on the hydro-mineral equilibrium after long-term administration.
The repeated administration of corticoids may result in an inhibition of the secretion of the ante-hypophysiary hormone which is shown by a lowering of the effectiveness of the target-glands (example: adrenal-glandes) and indirectly of certain organs which are under the dependence of a hormone secretion (example: genital tractus).
These studies have been carried out for some of the products according to the invention after sub-chronic administration.
There were utilized groups of 10 male rats and ten female rats of Sprague-Dawley S.P.F. strain which have been given the products under study by sub-cateneous methods daily for four weeks.
The products were administered in suspension in 5 % carboxy-methyl-cellulose under a volume of 0.5 ml. per 100 grams of body weight, in three different doses, the animals of the reference lot receiving the same volume of the vehicle alone.
At the end of this study there were extracted:
(2) the gonads (testicles or ovaries);
(3) the seminal vesicles or the uterine tubes;
The samples numbered (1), (2) and (3) were immediately weighed. All the samples were then fixed for histological examination in the Bouin-Holland fixator.
During the course of the long-term study, the JO 1016 was administered daily to the male and female rats in doses of 100 mg/kg, 250 mg/kg, 500 mg/kg by the sub-cutaneous route.
After a long-term treatment by the JO 1016, following the procedure (h), the average weights of the following organs: adrenal glandes, gonads, seminal vesicles, uterine tubes are indicated in the following Table XXII

Entries after “also recorded” stand apart in the source; their conditions may differ.

Turning to `CC(C)(C)C(=O)SCC(=O)[C@@]1(O)CC[C@H]2[C@@H]3CCC4=CC(=O)CC[C@]4(C)[C@H]3[C@@H](O)C[C@@]21C` [JO 1016, Dihydroxy-11β, 17α thio-21 dioxo-3,20 pregnene-4-21 pivalate], the ED50 anti-proliferative activity in data set [1] is on record as 0.35 mg/pellet. Further, the ED50 anti-exudatory activity in data set [2] is given as 1.5 mg. The Ovaries weight in data set [3] (100 mg/kg s.c.) amounted to 38.4 mg; in data set [3] (250 mg/kg s.c.), 38.3 mg; in data set [3] (500 mg/kg s.c.), 39.3 mg. Further, the Seminal vesicles weight was 328.0 mg in data set [3] (100 mg/kg s.c.), 296.0 mg in data set [3] (250 mg/kg s.c.) and 274.6 mg in data set [3] (500 mg/kg s.c.). For the same compound, the Testicles weight in data set [3] (100 mg/kg s.c.) is recorded as 1.143 g; in data set [3] (250 mg/kg s.c.), 1.144 g; in data set [3] (500 mg/kg s.c.), 1.207 g. The Uterine tubes weight stood at 211.8 mg in data set [3] (100 mg/kg s.c.), 184.7 mg in data set [3] (250 mg/kg s.c.) and 165.4 mg in data set [3] (500 mg/kg s.c.). Moreover, the Adrenal glands weight in data set [3] (female rats, 100 mg/kg s.c.) is 26.7 mg; in data set [3] (female rats, 250 mg/kg s.c.), 24,5 mg; in data set [3] (female rats, 500 mg/kg s.c.) it was 27,0 mg; in data set [3] (male rats, 100 mg/kg s.c.) it was 14.9 mg; in data set [3] (male rats, 250 mg/kg s.c.), 12,3 mg; in data set [3] (male rats, 500 mg/kg s.c.), 13.5 mg. In data set [3] (long-term s.c. treatment), the “Histological examination of organs” value is “has not furthermore brought into evidence any alteration of their structure; also recorded: neither atrophy nor surrenal hypertrophy; also recorded: nor modification of the functional aspect of the male and female genital organs”.
For `CC(=O)OCC(=O)[C@@]1(O)CC[C@H]2[C@@H]3CCC4=CC(=O)CC[C@]4(C)[C@H]3[C@@H](O)C[C@@]21C` [Hydrocortisone (acetate), Hydrocortisone acetate, reference compound], the ED50 anti-proliferative activity in data set [1] worked out at 1.05 mg/pellet. In addition, in data set [2], the ED50 anti-exudatory activity is on record as 1,5 mg.

These data come from patent US4014909A, “Esters of 21-thiol steroids” (priority 1974, dated 1977).
